Where “and” joins values, the source holds several entries; their conditions need not be identical. Equal entries are not always repeated. Numbers after ± are expanded uncertainties.
Assays:
[1] = Liquid; for viscosity: Concentric cylinders viscometry; for speed of sound: Single path-length method; for mass density: Vibrating tube method
[2] = xn = mol fraction of the nth substance listed; details: 102 kPa, Liquid, x2 = 0; for viscosity: Concentric cylinders viscometry; for speed of sound: Frequency=3 MHz, Single path-length method; for mass density: Vibrating tube method

CCCCCC1CCCCC1 [pentylcyclohexane]
[1], 102 kPa
Details	mass density [kg/m3]	viscosity [mPa·s]
293.15 K	804.11 ± 0.82	1.7 ± 0.02
303.15 K	796.8 ± 0.82	1.42 ± 0.01
313.15 K	789.47 ± 0.82	1.21 ± 0.01
323.15 K	782.12 ± 0.82	1.04 ± 0.01
333.15 K	774.74 ± 0.82	0.895 ± 0.012
343.15 K	767.3 ± 0.8	0.799 ± 0.012
353.15 K	759.9 ± 0.8	0.709 ± 0.012
363.15 K	752.4 ± 0.8	0.637 ± 0.012

[1], 102 kPa, Frequency=3 MHz
Details	speed of sound [m/s]
293.15 K	1345.9 ± 1
303.15 K	1306.4 ± 1
313.15 K	1267.8 ± 1
323.15 K	1230.1 ± 1
333.15 K	1193.4 ± 1

CCCCCCCCCCCCCCCC [hexadecane] + CCCC1CCCCC1
[2]
Details	mass density [kg/m3]	speed of sound [m/s]	viscosity [mPa·s]
293.15 K	773.37 ± 0.81	1357.4 ± 0.6	3.47 ± 0.02
303.15 K	766.43 ± 0.81	1319.6 ± 0.6	2.76 ± 0.02
313.15 K	759.51 ± 0.81	1282.9 ± 0.6	2.24 ± 0.02
323.15 K	752.61 ± 0.81	1247 ± 0.6	1.86 ± 0.01
333.15 K	745.69 ± 0.81	1212.1 ± 0.6	1.56 ± 0.01
343.15 K	738.78 ± 0.81	–	1.35 ± 0.01
353.15 K	731.9 ± 0.8	–	1.15 ± 0.01
363.15 K	724.9 ± 0.8	–	1.02 ± 0.01

CCCCCCCCCC1CCCCC1 [nonylcyclohexane]
[1], 102 kPa
Details	mass density [kg/m3]	viscosity [mPa·s]
293.15 K	816.41 ± 0.87	4.34 ± 0.04
303.15 K	809.57 ± 0.87	3.39 ± 0.03
313.15 K	802.74 ± 0.86	2.72 ± 0.02
323.15 K	795.8 ± 0.86	2.22 ± 0.02
333.15 K	789.05 ± 0.86	1.85 ± 0.02
343.15 K	782.2 ± 0.9	1.57 ± 0.02
353.15 K	775.4 ± 0.9	1.35 ± 0.02
363.15 K	768.5 ± 0.9	1.2 ± 0.02
373.15 K	761.6 ± 0.9	1.03 ± 0.01

[1], 102 kPa, Frequency=3 MHz
Details	speed of sound [m/s]
293.15 K	1397.2 ± 1.5
303.15 K	1359.6 ± 1.5
313.15 K	1322.9 ± 1.5
323.15 K	1287.1 ± 1.5
333.15 K	1252.2 ± 1.5

CCCCCCCCCCCCCCCC [hexadecane] + CCCCCCCCCCCCC1CCCCC1
[2]
Details	mass density [kg/m3]	viscosity [mPa·s]
293.15 K	773.37 ± 0.81	3.47 ± 0.02
303.15 K	766.43 ± 0.81	2.76 ± 0.02
313.15 K	759.51 ± 0.81	2.24 ± 0.02
323.15 K	752.61 ± 0.81	1.86 ± 0.01
333.15 K	745.69 ± 0.81	1.56 ± 0.01
343.15 K	738.8 ± 0.8	1.35 ± 0.01
353.15 K	731.9 ± 0.8	1.15 ± 0.01
363.15 K	724.9 ± 0.8	1.02 ± 0.01
373.15 K	717.9 ± 0.8	0.885 ± 0.012

CCCCCCCCCCCCCCCC [hexadecane] + CCCCCCCCC1CCCCC1
[2]
Details	mass density [kg/m3]	viscosity [mPa·s]
293.15 K	773.37 ± 0.81	3.47 ± 0.02
303.15 K	766.43 ± 0.81	2.76 ± 0.02
313.15 K	759.51 ± 0.81	2.24 ± 0.02
323.15 K	752.61 ± 0.81	1.86 ± 0.01
333.15 K	745.69 ± 0.81	1.56 ± 0.01
343.15 K	738.8 ± 0.8	1.35 ± 0.01
353.15 K	731.9 ± 0.8	1.15 ± 0.01
363.15 K	724.9 ± 0.8	1.02 ± 0.01
373.15 K	717.9 ± 0.8	0.885 ± 0.012

CCCCCCCCCCCCCCCC [hexadecane] + CCCCCCCC1CCCCC1
[2]
Details	mass density [kg/m3]	viscosity [mPa·s]
293.15 K	773.37 ± 0.81	3.47 ± 0.02
303.15 K	766.43 ± 0.81	2.76 ± 0.02
313.15 K	759.51 ± 0.81	2.24 ± 0.02
323.15 K	752.61 ± 0.81	1.86 ± 0.01
333.15 K	745.69 ± 0.81	1.56 ± 0.01
343.15 K	738.8 ± 0.8	1.35 ± 0.01
353.15 K	731.9 ± 0.8	1.15 ± 0.01
363.15 K	724.9 ± 0.8	1.02 ± 0.01
373.15 K	717.9 ± 0.8	0.885 ± 0.012

CCCCCCCCCCCCCCCC [hexadecane]
[1]
Details	mass density, 102 kPa	speed of sound, 101.33 kPa [m/s]	viscosity, 102 kPa [mPa·s]
293.15 K	773.37 ± 0.81 kg/m3	1357.4 ± 0.6	3.47 ± 0.02
303.15 K	766.43 ± 0.81 kg/m3	1319.6 ± 0.6	2.76 ± 0.02
313.15 K	759.51 ± 0.81 kg/m3	1282.9 ± 0.6	2.24 ± 0.02
323.15 K	752.61 ± 0.81 kg/m3	1247 ± 0.6	1.86 ± 0.01
333.15 K	745.69 ± 0.81 kg/m3	1212.1 ± 0.6	1.56 ± 0.01
343.15 K	738.78 ± 0.81 kg/m3 and 738.8 ± 0.8 kg/m3	–	1.35 ± 0.01
353.15 K	731.9 ± 0.8 kg/m3	–	1.15 ± 0.01
363.15 K	724.9 ± 0.8 kg/m3	–	1.02 ± 0.01
373.15 K	717.9 ± 0.8 kg/m3	–	0.885 ± 0.012

CCCCCCCCCCCCC1CCCCC1 [dodecylcyclohexane]
[1], 102 kPa
Details	mass density [kg/m3]	viscosity [mPa·s]
293.15 K	822.31 ± 0.81	7.76 ± 0.04
303.15 K	815.65 ± 0.81	5.81 ± 0.03
313.15 K	809.01 ± 0.81	4.48 ± 0.02
323.15 K	802.37 ± 0.81	3.55 ± 0.02
333.15 K	795.74 ± 0.81	2.88 ± 0.02
343.15 K	789.1 ± 0.8	2.39 ± 0.02
353.15 K	782.5 ± 0.8	2.01 ± 0.02
363.15 K	775.9 ± 0.8	1.72 ± 0.02
373.15 K	769.2 ± 0.8	1.48 ± 0.01

[1], 102 kPa, Frequency=3 MHz
Details	speed of sound [m/s]
293.15 K	1423.3 ± 0.9
303.15 K	1386.3 ± 0.9
313.15 K	1350.4 ± 0.9
323.15 K	1315.2 ± 0.9
333.15 K	1281.1 ± 0.9
